In the supplement of paper PMC10949913:

How the values were obtained:
Test in all cases: area under concentration-response curve (viability) (AUC (a.u.)); higher = less active
Settings in all cases: 48 h
[1] = tested on: CU-ACC2
Procedure, shortened: (§1)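 Three adrenocortical carcinoma cell lines were seeded at 500–1,000 cells/well in 5 µL medium in 1,536-well plates. 23 nL of each MIPE 5.0 library compound was added at 11 concentrations. After 48 h (per the protocol name), CellTiter-Glo was added for 15 minutes at room temperature and luminescence was read. Signals were normalised per plate to vehicle and empty-well controls. AC50 and area under the curve came from fitted concentration-response curves, keeping only inhibitory or non-responding curve classes.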

[2] = tested on: NCI-H295R
Procedure, shortened: as §1

[3] = tested on: CU-ACC1
Procedure, shortened: as §1

Compound	area under concentration-response curve [1]	area under concentration-response curve [2]	area under concentration-response curve [3]
CN(C)NC(=O)CCC(=O)O	410	397	405
COC1=CC=C(C=C1)/C2=C(O)/C(=O)C3=C(O)C=C(O)C(=C3O2)CC=C(C)C	388	416	415
OC(=O)\C1=C\N(C2CC2)C3=CC(=C(F)C=C3C1=O)N4CCNCC4	693	561	571
O=C(Cc1ccccc1)Nc1nnc(CCSCCc2nnc(NC(=O)Cc3ccccc3)s2)s1	532	507	509
CC(C)(OCc1nn(Cc2ccccc2)c2ccccc12)C(=O)O	460	491	416
N#Cc1ccc(N(Cc2ccc(Br)cc2)n2cnnc2)cc1	633	598	413
CC(S)C(=O)NCC(=O)O (stereo not given)	632	563	547
Nc1cccc2c1C(=O)N(C1CCC(=O)NC1=O)C2=O (stereo not given)	645	567	520
Cc1n[nH]c(C)c1Cc1sc2c(c1C(=O)N1C[C@H](O)CO1)c(=O)n(C)c(=O)n2CC(C)C	597	554	379
CCOC(=O)Nc1ccc(NCc2ccc(F)cc2)nc1N	439	504	446
O=C(c1ccc(N[S+](=O)([O-])c2cccc3cccnc23)cc1)N1CCN(CC2CC2)CC1	486	527	485
C=C1/C(=C/C=C2\CCCC3(C)[C@@H]([C@H](C)/C=C/C=C/C(O)(CC)CC)CC[C@@H]23)C[C@@H](O)C[C@@H]1O (stereo not given in full)	576	522	480
COc1cc(N2CCC(O)CC2)ccc1Nc1cc(Nc2ccccc2[S+](=O)([O-])C(C)C)c2cc[nH]c2n1	654	588	585
CC[C@@H](Oc1cccc(CN(CCCOc2ccc(OC)cc2)c2nc3ccccc3o2)c1)C(=O)O	571	519	562
CCCCn1c(=O)n(Cc2ccccc2F)c(=O)c2nc(Cc3ccc(NC(C)=O)cc3)[nH]c21	543	531	491
Cc1ccccc1N1C(=O)c2cc([S+](N)(=O)[O-])c(Cl)cc2NC1C (stereo not given)	599	512	495
CN1C(=O)N(c2cc(Cl)cc(Cl)c2)C(=O)[C@]12CN(Cc1cc(C(=O)O)cs1)C[C@H]2c1ccc(C#N)cc1	420	404	401
Cn1c(=O)c2c(ncn2C)n(C)c1=O	533	498	479
Cc1ccc(CN2CCNCC2)cc1NC(=O)CNc1ccc(F)c(F)c1	635	596	531
CCCCCOC(=O)NC\1=N\C(=O)N(\C=C1F)[C@@H]2O[C@H](C)[C@@H](O)[C@H]2O	606	559	512

Compound	area under concentration-response curve [1]	area under concentration-response curve [2]	area under concentration-response curve [3]
CCCc1c(OCCCOc2ccc(OCC(=O)O)cc2)ccc(C(C)=O)c1O	607	548	518
CC1Cc2ccccc2N1NC(=O)c1ccc(Cl)c([S+](N)(=O)[O-])c1 (stereo not given)	583	531	488
ClC1=CC=C2N/C3=N/C(=O)CN3CC2=C1Cl	626	542	519
O=C(c1ccc(C(=O)N2CCC(N3CCCC3)CC2)c(Nc2ccccc2)c1)N1CCC(N2CCCC2)CC1	601	556	493
COc1cc([C@@H]2c3cc4c(cc3[C@@H](O)C3COC(=O)C32)OCO4)cc(OC)c1O (stereo not given in full)	559	511	500
O=C1CCc2ccc(OCCCCN3CCN(c4cccc(Cl)c4Cl)CC3)cc2N1	593	544	468
Cc1noc(-c2ccc(CSCCC(=O)O)cc2)c1NC(=O)OC(C)c1ccccc1Cl (stereo not given)	557	505	469
CC[S+](=O)([O-])c1ccc2oc(-c3ccc4ccccc4c3)nc2c1	602	514	538
O=C1CCC[C@@H]2[C@H]3CCC[N+]4([O-])CCC[C@@H](CN12)[C@@H]34 (stereo not given in full)	610	552	536
O=NN(CCCl)C(=O)NCCCl	522	466	454
CCc1cccc2c3c([nH]c12)[C@@](CC)(CC(=O)O)OCC3	605	525	518
CCC(=O)NC[C@H](Cc1ccc(OCCc2nc(-c3ccccc3)oc2C)cc1)N/C(C)=C\C(=O)c1ccc(C(F)(F)F)cc1	548	487	498
NC(CC1c2ccccc2Oc2ccccc21)(C(=O)O)C1CC1C(=O)O (stereo not given)	621	512	530
CCC(=O)O[C@@]1([C@H](C)C[C@H]2[C@@H]3C[C@H](F)\C4=C\C(=O)\C=C/[C@]4(C)[C@@]3(F)[C@@H](O)C[C@]12C)C(=O)SCF	484	510	372
Cc1[nH]nc(C(F)(F)F)c1Cc1sc2c(c1C(=O)N1C[C@](C)(O)CO1)c(=O)n(C)c(=O)n2C(C)C	552	509	431
CCCn1c(=O)c2[nH]c(-c3cnn(Cc4cccc(C(F)(F)F)c4)c3)nc2n(CC)c1=O	633	584	509
CNC(=O)c1ccc(N2C(=S)N(c3ccc(C#N)c(C(F)(F)F)c3)C(=O)C23CCC3)cc1F	500	534	488
Cc1csc(NC(=O)c2sc3nc4c(c(C(F)(F)F)c3c2N)CCC4)n1	494	472	441
O=C(Nc1ccc(-c2ccnc(Nc3ccc(N4CCOCC4)cc3)n2)cc1)C1CCCN1 (stereo not given)	601	553	501
Nc1cccc(-c2cc3c(Oc4cccc(O)c4)ncnc3[nH]2)c1	534	530	524
